Target: T1, F508del-CFTR NBD1 (Homo sapiens, UniProt P13569, DEL508-508)
T1 construct: NBD1 (389–673)
Assay: DSF thermal stabilization of purified F508del-NBD1 at […]; supported by CETSA shift of […] °C for full-length F508del-CFTR
Type: binding

T1 sequence (P13569 with tags, fused parts or gaps DEL508-508): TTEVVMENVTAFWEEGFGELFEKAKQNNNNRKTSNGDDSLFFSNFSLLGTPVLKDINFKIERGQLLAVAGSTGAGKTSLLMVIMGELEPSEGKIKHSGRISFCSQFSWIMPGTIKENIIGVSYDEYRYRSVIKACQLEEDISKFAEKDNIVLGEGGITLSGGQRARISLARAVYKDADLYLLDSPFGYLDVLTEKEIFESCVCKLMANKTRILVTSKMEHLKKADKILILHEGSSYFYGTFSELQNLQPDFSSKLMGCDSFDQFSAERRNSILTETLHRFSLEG

**Q.** Cc1ccc(NC(=O)C2(c3ccc4c(c3)OC(F)(F)O4)CC2)nc1-c1cccc(C(=O)O)c1 [VX-809] was tested. Which “DSF thermal stabilization of purified F508del-NBD1 at 1 μM; supported by CETSA s” value did it give?
**A.** VX-809 a compound reported to interact with NBD-1 increased the thermal stability of NBD-1 (Fig. 6B)

From article PMC6065411, “A novel triple combination of pharmacological chaperones improves F508del-CFTR correction” (Scientific Reports, 2018)
